{"source": "patent US9872875B2", "about": "“Component and method for treating viral disease” (Institut Pasteur of Shanghai, Chinese Academy of Sciences, priority 2012, dated 2018)", "key": {"[1]": {"assay": "Toxicity in ICR newborn mice", "assay_type": "in vivo", "settings": "50 mg/kg or 20 mg/kg intraperitoneally daily for 4 consecutive days", "method": "Three-day-old ICR mice were injected intraperitoneally and daily with 50 μl of E02 at a dose of 50 mg/kg, 20 mg/kg, or 50 μl of DMEM for 4 consecutive days."}, "[2]": {"system": "EV71 clinical isolate (EV71 FY 573)", "assay": "EV71 infection in ICR newborn mice, serum viral load", "assay_type": "in vivo", "settings": "50 mg/kg E02 intraperitoneally; 5 days after infection; infection group average 15.0", "method": "EV71 clinical isolate (EV71 FY 573) was used to infect three-day-old newborn ICR mice to test E02's efficacy to inhibit EV71 in vivo. Test mice were divided into three groups: drug group, infection group, and placebo group. When mice were two-day-old, drug group were intraperitoneally injected with 50 μl of E02 at a dose of 50 mg/kg. Infection group and placebo group were intraperitoneally injected with 50 μl of DMEM. When three-day-old, drug group was intraperitoneally injected with a mixture (50 μl) of E02 at a dose of 50 mg/kg and EV71 clinical isolate at a dose of 5×10^7 TCID50. Infection group was injected with a mixture of 5×10^7 TCID50 viruses (25 μl) and 25 μl of DMEM. Placebo group was injected with 50 μl of DMEM.\n5 days after infection, blood was collected and serum was separated. Viral RNA in serum was extracted (viral RNA extraction kit, QIAGEN QIAamp Viral RNA Mini Kit, cat #52906). Copies of EV71 5′UTR gene and GAPDH gene were detected using one-step real-time quantitative RT-PCR kit (QIAGEN QuantiTect SYBR Green RT-PCR Kit) in ABI 7900HT 384-well plates PCR system."}, "[3]": {"system": "EV71 clinical isolate SH-RS", "assay": "EV71 SH-RS PFU in RD cells", "assay_type": "cell-based, Enterovirus 71", "settings": "Enterovirus A, 168 h, 5~7 days, read-out: EC50 to reduce EV71 SH-RS PFU in RD cells", "method": "(§1) RD cells cultured in 12-well plates were infected with EV71 SH-TS or SH-RS at different E02 concentrations. After cultured for 5˜7 days, cells were stained and plaque-forming units were calculated. Same procedure is as detailed in “3. E02 reduces EV71 plaque forming units in RD cells” of Example 1."}, "[4]": {"system": "EV71 clinical isolate SH-TS", "assay": "EV71 SH-TS PFU in RD cells", "assay_type": "cell-based, Enterovirus 71", "settings": "Enterovirus A, 168 h, 5~7 days, read-out: EC50 to reduce EV71 SH-TS PFU in RD cells", "method": "as §1"}, "[5]": {"system": "EV71 clinical isolate (EV71 FY 573)", "assay": "EV71 plaque forming units in RD cells", "assay_type": "cell-based, Enterovirus 71", "settings": "Enterovirus A, EV71 FY 573, 5-7 days, read-out: EC50 to reduce EV71 PFU in RD cells", "method": "EV71 (clinical isolate of EV71 FY 573) was used to infect RD cells cultured in 12-well plates at different E02 concentrations. After cultured for 5 to 7 days, stained and plaque forming units were calculated. Procedures are detailed as follows:\n(1) Cell seeding: 24 h prior to infection, RD cells were seeded in 12-well cell culture plates, 2×10^5 cells per well.\n(2) Infection of cells: • a. Virus pre-incubated with drug: virus stock solution was in 10-fold serially diluted with DMEM to 50,000 PFU/ml, 5,000 PFU/ml, and 500 PFU/ml; and dispensed to 12-well plates at 500 μl per well, and 56 μl of E02 dissolved in DMEM at corresponding concentration was added, and incubated at 37° C. for 1 h; • b. Cells pre-incubated with drug: cell culture medium was removed from 12-well plates, each well was added 500 μl DMEM, then added 56 μl of E02 solution at corresponding concentration, and incubated at 37° C. for 1 h; • c. After 1 h incubation, drug was discarded from cell culture plates, 556 μl of virus pre-incubated with drug was transferred to cell culture plates, and incubated at 37° C. for 1 h; • d. […]\n(3) After cultured for 5-7 days, gels were removed, stained with crystal violet, washed once with PBS, plaque numbers recorded and plaque forming units calculated."}}}
{"molecule": "Cc1ccc(C(=O)Nc2ccc(S(=O)(=O)O)c3cc(S(=O)(=O)O)cc(S(=O)(=O)O)c23)cc1NC(=O)c1cccc(NC(=O)Nc2cccc(C(=O)Nc3cc(C(=O)Nc4ccc(S(=O)(=O)O)c5cc(S(=O)(=O)O)cc(S(=O)(=O)O)c45)ccc3C)c2)c1", "note": "[E02, Suramin Sodium]", "values": [{"measurement": "toxicity in three-day-old ICR mice", "setting": "[1]", "result": "No toxicity was observed"}, {"measurement": "RNA loading ratio between EV71 and GAPDH in serum, average value of drug group", "setting": "[2]", "result": 1.8}, {"measurement": "EC50", "setting": "[3]", "result": 3.47, "unit": "µM"}, {"measurement": "EC50", "setting": "[4]", "result": 2.24, "unit": "µM"}, {"measurement": "EC50", "setting": "[5]", "result": 2.6, "unit": "µM"}]}
